Literature values in patent US9452178B1, “Acne formulations, treatments, and pressure sensitive patches for delivery of acne formulations” (SatisPharma, LLC, priority 2014, dated 2016).

Conditions: complex with polyvinylpyrrolidone; publication by Rhein et al

## O=C(O)c1ccccc1O [salicylic acid]
  permeation through the epidermis: prevents its permeation through the epidermis
